Key:
[1] = system: Guinea pig late asthma model; assay: Guinea pig late asthma model (ovalbumin sensitized, respiratory function sRaw/TV); format: in vivo; details: 3 mg/kg orally one hour before antigen challenge
Experimental: Assessment of Compounds in Guinea Pig Late Asthma Model
The assessment was carried out using a compound obtained in Example 52.
Hartley male guinea pigs (commercially available from Japan SLC, Inc.) were pre-bred about 1 week after arrival, and then exposed by inhalation to 2% (w/v) ovalbumin (OA) saline in a plastic box (4 guniea pigs/box) for 5 minutes using a ultrasonic nebulizer (OMRON NE-U12, condition: maximum nebulizing amounts, maximum air volume), and sensitized (day 0). The same operation was carried out on day 7. On day 14 or 15, each guinea pig was administered 2% OA by inhalation for 5 minutes to initiate a response (challenge). […]
A determination and analysis of respiratory function were carried out according to the method of Penny A. Hutson et al. Am Rev Respir Dis 1988 137, 548-557. The respiratory function was determined before the antigen challenge (before drug administration) and 5 minutes and 1, 2, 3, 4, 5, 6, 7 and 8 hours after the antigen challenge, and wave profiles were imported using MacLab Chart v3.4 (AD Instruments) and analyzed later. […] The sRaw/TV values subtracting the former values were plotted against measured times, and each area under the curve (AUC4-8 hr) of each animal was calculated to compare each other in the range of 4 to 8 hours after the antigen challenge. […]

rat lung membrane SMBS = assay: Receptor-binding assessment test using rat lung membranes ([125I]-iodocyanopindolol ligand binding assay); details: 1 μM test compound; ratio of inhibiting specific binding of [125I]-iodocyanopindolol to rat lung membrane SMBS
Experimental: Receptor-Binding Assessment Test of Compounds Using Rat Lung Membranes
The assessment test was carried out according to the method of Sugasawa, T. et al., J. Biol. Chem., 272, 21244-21252 (1997).
Preparation of Rat Lung Membranes
Lung taken out from SD male rat (7-week old under test, Charles River Laboratories Japan, Inc.) was removed trachea and blood vessels to shred and washed with iced tris-saline buffer (10 mM tris hydrochloric acid-154 mM sodium chloride, pH7.4). The resultant was homogenized by Hiscotron with ice-cold tris-saline buffer containing a homogenization buffer (1 mM ethylenediaminetetraacetic acid (EDTA), 1 mM 4-(2-aminoethyl)benzenesulfonyl fluoride (AEBSF), 5 μg/ml aprotinin, 5 μg/ml leupeptine) (maximum rate: 1 minute). The supernatant after low-speed centrifugation (1500×g, 20 minutes, 4° C.) was ultracentrifuged (100000×g, 20 minutes, 4° C.), and the pellet was suspended in tris-saline buffer to store at −80° C. The protein concentrations were determined by Bio-Rad Protein Assay Kit using bovine serum albumin (BSA) as a standard.
To each well in protein-nonabsorptive round-bottom 96-well assay plate (commercially available from Iwaki Glass Co., Ltd.) were added tris-saline buffer (200 μl) containing 1 nM [^125I]-iodocyanopindolol (commercially available from Amersham plc), 10 μM serotonine, 20 μm dl-propranolol, 10 μM phentolamine, 1.1 mM ascorbic acid and 100 μg lung membrane, and the mixture was pipetted to combine and then incubated at 37° C. for 30 minutes. The test compounds were dissolved in 100% dimethyl sulfoxide solution, and thereto was added 2 μl (final DMSO concentration: 1%). In order to calculate nonspecific binding amounts, to the mixture was added L-threo-3-(3,4-dihydroxyphenyl)-N-[3-(4-fluorophenyl)propyl]serine pyrrolidine amide at 100 μM of the final concentration as an alternative to the test compounds. During this time, 100 μl of 0.3% polyethyleneimine (PEI)/tris-saline buffer was added to MultiScreen plate (96-well B glass fiber, Millipore Cat. No. MAFB NOB10), and incubated for over 30 minutes. The resultant was filtered with aspiration (aspiration by the addition of 200 μl iced tris-saline buffer) to wash, and the reaction solutions on 96-well assay plate were filtered with aspiration to wash four times on MultiScreen plate. B glass fiber filter paper at the bottom of MultiScreen plate was punched out, and γ-ray doses of [^125I]-iodocyanopindolol trapped on the filter paper were determined as binding amounts. The binding amounts in the presence of DMSO (final concentration: 1%) were total binding amounts, and the binding amounts in the presence of 100 μM L-threo-3-(3,4-dihydroxyphenyl)-N-[3-(4-fluorophenyl)propyl]serine pyrrolidine amide were nonspecific binding amounts. The values subtracted the nonspecific binding amounts from the total binding amounts were the specific binding amounts. The binding activity of a compound was calculated according to the following formula, which was shown in the ratio of inhibiting the specific binding of [^125I]-iodocyanopindolol to rat lung membrane SMBS by the test compound.

[2] = system: Corticosterone generation; assay: Assessment test of steroid hormone synthesis inhibition (Corticosterone generation in rat adrenal gland cells); format: cell-based; details: 10 μM test article, rat adrenal cells with cAMP, 2 hours, read-out: Steroid Synthesis Inhibition Rate (%) (10 μM)
Description: Assessment Test of Steroid Hormone Synthesis Inhibition
• Cell Strainer (BD Falcon®) • Cell Titer-Glo® (Promega) • Collagenase from Clostridium histolyticum (Sigma-Aldrich) • Corticosterone EIA kit (Cayman) • Dimethylsulfoxide (referred to as DMSO hereinafter) (nacalai tesque) • D-MEM (GIBCO) • DNase I (Invitrogen) • Fetal Bovine Serums (referred to as FBS hereinafter) (Bioflud) • Multiple well plates for adhesive cell culture, 96 wells (IWAKI) • N^6,2′-O-Dibutyryladenosine 3′,5′-cyclic monophosphate sodium salt (referred to as cAMP hereinafter) (Sigma) • Penicillin Streptomycin Mixed Solution (nacalai tesque)
Control examples 1 to 4: Control example 1 was Example 350 of Patent Document 2. Control examples 2 to 4 were synthesized according to Patent Document 2.
Adrenal glands were taken out from rats, and removed excess connective tissues, adiposes and membranes in D-MEM. The adrenal glands were transferred to polytubes, and quickly segmentalized with scissors. Thereto was added D-MEM containing 1 mg/mL collagenase and 0.25 μL DNase 1, and then the mixture was shaken at 37° C. for 10 minutes in 80 times/minute. Then, the mixture was pipetted by 1 mL truncated pipette tip, and shaken again under the same condition. After 10 minutes, the mixture was pipetted again by 1 mL pipette tip, and the cell suspension was filtered through metal mesh. The filtrate was centrifuged at 4° C. for 5 minutes in 500 g. The supernatant was removed, and thereto was added a mixed solution of 0.16 M NH4Cl and 0.17 M Tris-HCl in 3 mL. The mixture was let stand on ice for 5 minutes, and then centrifuged under the same condition. Then, the supernatant was removed and then thereto was added D-MEM. The cell suspension was prepared and centrifuged under the same condition. Again, the supernatant was removed and then thereto was added D-MEM to give a cell suspension. The cell suspension was filtered by Cell Strainer (BD Falcon®). The filtrate was centrifuged under the same condition. After the completion of the centrifugation, the supernatant was removed, and thereto was added D-MEM containing 1% Penicillin Streptomycin Mixed Solution and 10% FBS. The mixture was seeded in Multiple well plate for adhesive cell culture, 96 wells (IWAKI) in 10000 cells/well, and incubated at 37° C. overnight in CO2 incubator.
Test article concentrations were prepared in DMSO to 2000 μM, and D-MEM containing 20 μM test article in D-MEM was prepared.
Cell-seeded plate was incubated overnight, and then the medium was removed and thereto was added D-MEM containing 20 μM test article in 50 μL/well. Then, to the mixture was promptly added D-MEM containing 20 μM cAMP in 50 μL/well so that the final concentration of the test article was 10 μM. After the addition of 2 types of D-MEM, the mixture was incubated at 37° C. for 2 hours in CO2 incubator. After 2 hours, the supernatant (50 μL) of the medium was collected. For cells, the cell toxicity of the test article was assessed according to a conventional method using Cell Titer-Glo® (Promega). For the collected supernatant, the Corticosterone concentration in the supernatant was determined according to a conventional method using Corticosterone EIA kit (Cayman).
The inhibition rate of 10 μM test article to Corticosterone generation was calculated according to the following formula confirming that the cell toxicity by the test article was not recognized.

CNC(=O)NCCn1c(-c2ccc(C(=O)N3CCOCC3)cc2)cs/c1=N\c1cccc(F)c1 [Example 52, N-{2-[(2Z)-2-[(3-Fluorophenyl)imino]-4-[4-(morpholin-4-ylcarbonyl)phenyl]-1,3-thiazol-3(2H)-yl]ethyl}-N′-methylurea]
AUC4-8 hr ((sRaw/TV) · h) ([1]; 4 to 8 hours after antigen challenge): 0.427 (sRaw/TV) · h
Improvement Rate (%) ([1]; AUC4-8 hr versus control group, p<0.01 Dunnett's test): 54%
Binding Activity (%) (1 μM) (rat lung membrane SMBS): 59%
inhibition at 10 µM [2]: 0%
